Measured values: patent US7034208B1, “Ahas inhibiting herbicide resistant wheat and method for selection thereof” (BASF Aktiengellschaft, priority 1991, dated 2006)

How the values were obtained:
[1] = test system: wheat embryos (M3 of FS1-FS4, Fidel); test: M3 Plant Screen: In vitro (excised embryos cultured on herbicide medium); format: cell-based
Procedure: M3 plants from the four initial plant selections (labelled FS1, FS2, FS3 and FS4) are screened for PURSUIT™ resistance in vitro. M3 seeds from each mature infloresence of these initial M2 mutants are disinfested in 70% EtOH for 30 seconds followed by disinfestation in 50% solution containing 2.625% sodium hypochlorite (as described above) for 20 minutes under vaccuum with gentle agitation provided by a stir plate. The seeds are soaked in sterile distilled water in 100×5 mm sterile plastic petri dishes for 20-24 hours after which the embryos are excised and cultured onto medium containing either 10^−4, 10^−5, or 10^−6 M PURSUIT™. […] Embryo ratings are taken at either two and one-half or three weeks after culture initiation.

[2] = test system: M4 progeny of wheat selections FS1-FS4 and Fidel; test: Segregation Study, postemergence spray of M4 progeny; format: in vivo
Procedure: A study is performed to assay M4 progeny of the initial mutant wheat selections for imidazolinone resistance and homogeneity. M4 seeds, from M3 plants (derived from initial selections, FS1-FS4) which survive the two-step screen described previously, are used in this study. In addition, M4 seeds derived from M3 plants of each selection which are not screened (designated “stock” plants) are evaluated as well as Fidel controls. Seeds, derived from both stock and screened M3 plants representing each infloresence of each original wheat selection (FS1-FS4), are planted in flats at a rate of twenty-five seeds per row and eight rows per flat. One week after planting, when the seedlings are at Z12 (two leaf) stage, the plants are sprayed with 62.5 g/ha PURSUIT™. The herbicide is applied with a laboratory belt sprayer at a rate of 950 L/ha with a belt speed of 12.5 sec/rev. using sprayer nozzle #40015E at a height 18 inches above the plants. Tween 20™ is used as a surfactant at 0.25% v/v. Plants are evaluated three weeks after spraying.

[3] = test system: reciprocally crossed and selfed progeny of mutant wheat selections; test: Genetic Condition Studies Experiment 2, reciprocal crosses and selfed progeny; format: in vivo; conditions: 200 g/ha postemergence
Text: Experiment 2: This experiment continues the evaluation of the mutant wheat selections by examining herbicide resistance in reciprocal crossed and selfed material. Reciprocal crosses are made between M3 plants representing each of the original four mutant selections and between these selections and Fidel. Progeny of these crosses as well as selfed progeny of the plants used in the crosses are planted in 6 inch azalea pots in Metro Mix 350™. Ten pots of each cross are planted with two seeds planted per pot. Ten days later, all of the selfed and reciprocally crossed progeny are sprayed postemergence with PURSUIT™ at 200 g/ha. Herbicide treatment is applied as described in Experiment 1. Plants are thinned to one plant per pot (by removing the weaker of the two plants per pot) one week after herbicide treatment. There is 100% germination of seed from the mutant reciprocal crosses and greater than 90% germination of seed from the selfed mutants.

[4] = test system: F2 progeny of Fidel x FS1-FS4 crosses and Fidel; test: Genetic Condition Studies Experiment 4, F2 of (Fidel x FS) selfed; format: in vivo, wheat; conditions: 200 g/ha postemergence
Text: Experiment 4: The resistant wheat selections, FS1-FS4, are crossed to Fidel and the F1 seed from these crosses is selfed. The crosses are as follows: (Fidel×FS1) selfed (Fidel×FS2) selfed (Fidel×FS3) selfed (Fidel×FS4) selfed
The F2 progeny from these crosses and their susceptible progenitor variety Fidel are planted in flats. Five F2 progenies are used for each of the four crosses. One flat is planted of each progeny for each cross. The flats consist of six rows per flat with 25 seeds per row. The flats are sprayed postemergence with 200 g/ha PURSUIT™ eleven days later. The PURSUIT™ is applied as previously described.

[5] = test system: wheat selection FS4 and Fidel; test: Field Trial II; format: in vivo; conditions: resistant selection FS4; postemergent; six weeks after treatment
[6] = Control 2 = Fidel on medium with herbicide, concentration 10^−5
[7] = Control 2 = Fidel on medium with herbicide, concentration 10^−6
[8] = Control M3 = M3 seed on medium with herbicide (footnote), section 10^−5
[9] = Control M3 = M3 seed on medium with herbicide (footnote), section 10^−6
[10] = FS1 M3 embryos, concentration 10^−5
[11] = FS1 M3 embryos, concentration 10^−6
[12] = FS2 M3 embryos, concentration 10^−5
[13] = FS2 M3 embryos, concentration 10^−6
[14] = FS3 M3 embryos, concentration 10^−5
[15] = FS3 M3 embryos, concentration 10^−6
[16] = FS4 M3 embryos, concentration 10^−5
[17] = FS4 M3 embryos, concentration 10^−6

CCc1cnc(C2=NC(C)(C(C)C)C(=O)N2)c(C(=O)O)c1 (stereo not shown) [PURSUIT, 5-ethyl-2-(4-isopropyl-4-methyl-5-oxo-2-imidazolin-2-yl)-nicotinic acid]
Embryo Rating D (Damaged), number of embryos [1, 6]: 0 | Embryo Rating S (Susceptible), number of embryos [1, 6]: 30 | Embryo Rating T (Tolerant), number of embryos [1, 6]: 0 | Embryo Rating D (Damaged), number of embryos [1, 7]: 0 | Embryo Rating S (Susceptible), number of embryos [1, 7]: 15 | Embryo Rating T (Tolerant), number of embryos [1, 7]: 0 | Ave. Shoot Height [1, 8]: 14.7 cm | Embryo Rating D (Damaged), number of embryos [1, 8]: 1 | Embryo Rating S (Susceptible), number of embryos [1, 8]: 1 | Embryo Rating T (Tolerant), number of embryos [1, 8]: 27 | Range Shoot Heights [1, 8]: 1-28 cm | Ave. Shoot Height [1, 9]: 14.6 cm | Embryo Rating D (Damaged), number of embryos [1, 9]: 0 | Embryo Rating S (Susceptible), number of embryos [1, 9]: 0 | Embryo Rating T (Tolerant), number of embryos [1, 9]: 15 | Range Shoot Heights [1, 9]: 2-28 cm | Embryo Rating D (Damaged), number of embryos [1, 10]: 16 | Embryo Rating S (Susceptible), number of embryos [1, 10]: 42 | Embryo Rating T (Tolerant), number of embryos [1, 10]: 21 | Range Shoot Heights [1, 10]: 0-1.5 cm | Ave. Shoot Height [1, 11]: 9.1 cm | Embryo Rating D (Damaged), number of embryos [1, 11]: 0 | Embryo Rating S (Susceptible), number of embryos [1, 11]: 0 | Embryo Rating T (Tolerant), number of embryos [1, 11]: 70 | Range Shoot Heights [1, 11]: 1-22 cm | Embryo Rating D (Damaged), number of embryos [1, 12]: 14 | Embryo Rating S (Susceptible), number of embryos [1, 12]: 45 | Embryo Rating T (Tolerant), number of embryos [1, 12]: 21 | Range Shoot Heights [1, 12]: 0-3.5 cm | Ave. Shoot Height [1, 13]: 11.4 cm | Embryo Rating D (Damaged), number of embryos [1, 13]: 1 | Embryo Rating S (Susceptible), number of embryos [1, 13]: 0 | Embryo Rating T (Tolerant), number of embryos [1, 13]: 64 | Range Shoot Heights [1, 13]: 1-23 cm | Embryo Rating D (Damaged), number of embryos [1, 14]: 9 | Embryo Rating S (Susceptible), number of embryos [1, 14]: 58 | Embryo Rating T (Tolerant), number of embryos [1, 14]: 12 | Range Shoot Heights [1, 14]: 0-4.5 cm | Ave. Shoot Height [1, 15]: 5.2 cm | Embryo Rating D (Damaged), number of embryos [1, 15]: 12 | Embryo Rating S (Susceptible), number of embryos [1, 15]: 22 | Embryo Rating T (Tolerant), number of embryos [1, 15]: 34 | Range Shoot Heights [1, 15]: 1-23 cm | Embryo Rating D (Damaged), number of embryos [1, 16]: 15 | Embryo Rating S (Susceptible), number of embryos [1, 16]: 31 | Embryo Rating T (Tolerant), number of embryos [1, 16]: 16 | Range Shoot Heights [1, 16]: 0-3.0 cm | Ave. Shoot Height [1, 17]: 13.4 cm | Embryo Rating D (Damaged), number of embryos [1, 17]: 8 | Embryo Rating S (Susceptible), number of embryos [1, 17]: 13 | Embryo Rating T (Tolerant), number of embryos [1, 17]: 59 | Range Shoot Heights [1, 17]: 1-33 cm | embryos that germinate ([1]; Fidel controls or M3 embryos, medium containing 10^−4 M): None of the embryos | tolerance of embryos ([1]; M3 embryos, 10^−5 M in the medium, still considerable growth inhibition): somewhat tolerant | susceptibility of Fidel ([2]; Fidel, 62.5 g/ha postemergence at Z12 stage, three weeks after spraying, all plants die): completely susceptible | tolerance of resistant selections ([2]; imidazolinone-resistant winter wheat selections, M4, 62.5 g/ha postemergent, greenhouse): excellent tolerance | damage to mutant crosses [3]: None of the mutant crosses is damaged | segregation ratio of F2 progenies ([4]; F2 of each of the four crosses (Fidel x FS1-FS4) selfed): 3 (resistant): 1 (susceptible) | lethality ([4]; plants heterozygous or homozygous for resistance): non-lethal | lethality ([4]; susceptible wheat): lethal to susceptible wheat | effect on final plant height [5]: no effect
